Source: patent US8207227B2, “Disodium salts, monohydrates, and ethanol solvates for delivering active agents” (Emisphere Technologies, Inc., priority 1999, dated 2012)

Tests used:
[1] = Oral delivery of sCT/sodium salt of 5-CNAC in rats; serum sCT by EIA kit, modified protocol; assay type: in vivo, Sprague-Dawley rats; settings: subcutaneous, sCT 5 mg/kg (so in the source), no delivery agent
Procedure: The rats were administered one of the following: • (4a) orally, one capsule of 13 mg lyophilized powder as prepared as in Example 19 with 0.5 ml of water to flush the capsule down; • (4b) orally, 1.0 ml/kg of a reconstituted aqueous solution of the lyophilized powder prepared in Example 19; • (4c) orally, 1.0 ml/kg of “fresh”, unlyophilized aqueous solution of 5-CNAC sodium salt as prepared in Example 20 with sCT; or • (4d) subcutaneously, 5 mg/kg of sCT.
Doses (4a), (4b) and (4c) contained 50 mg/kg of the sodium salt of 5-CNAC and […] of sCT. Doses for (4a) are approximate because the animals were given one capsule filled with the stated amount of powder based on an average animal weight of 250 g, whereas actual animal weight varied. This is also the case in all later examples where a capsule is dosed.
The reconstituted solution for (4b) was prepared by mixing 150 mg of the lyophilized powder prepared as in Example 19 in 3 ml of water. The reconstituted solution was dosed at […].
The subcutaneous doses were prepared by dissolving 2 mg of sCT in 1 ml water. […]. This solution was dosed at 0.5 ml/kg.
Blood samples were collected serially from the tail artery. […]

[2] = Oral delivery of heparin with SNAC salts; plasma heparin by anti-Factor Xa assay; assay type: in vivo, Sprague-Dawley rats; settings: rats, oral gavage, 3 ml/kg, compound 300 mg/kg, heparin 100 mg/kg
Procedure: The typical dosing and sampling protocols were as follows. […] The syringe was filled with dosing solution by drawing the solution through the catheter, which was then wiped dry. The catheter was placed down the esophagus leaving 1 cm of tubing past the incisors. Solution was administered by pressing the syringe plunger.

clotting time (APTT) = assay: Oral delivery of heparin with SNAC salts; clotting time by activated partial thromboplastin time (APTT); assay type: in vivo, Sprague-Dawley rats; settings: rats, oral gavage, 3 ml/kg, compound 300 mg/kg, heparin 100 mg/kg; baseline about 20 seconds
Procedure: Oral gavage (PO) dosing solutions containing heparin sodium USP and either the mono-sodium or di-sodium salt form of the delivery agent compound SNAC were prepared in water. The delivery agent compound and heparin (166.9 IU/mg) were mixed by vortex as dry powders. This dry mixture was dissolved in water, vortexed and sonicated at about 37° C. to produce a clear solution. The pH was not adjusted. The final volume was adjusted to about 10.0 ml. The final delivery agent compound dose, heparin dose and dose volume amounts are listed below in Table 2 below.
The typical dosing and sampling protocols were as follows. […]
Citrated blood samples were collected by cardiac puncture 0.25, 0.5, 1.0 and 1.5 hours after administration. Heparin absorption was verified by an increase in clotting time as measured by the activated partial thromboplastin time (APTT) according to the method of Henry, J. B., Clinical Diagnosis and Management by Laboratory Methods, Philadelphia, Pa., W.B. Saunders (1979). […] Heparin absorption was also verified by an increase in plasma heparin measured by the anti-Factor Xa assay CHROMOSTRATE® Heparin anti-Xa assay, available from Organon Teknika Corporation of Durham, N.C. […]

[3] = Oral delivery of low molecular weight heparin (LMWH) with SNAD salts; plasma heparin by anti-Factor Xa assay; assay type: in vivo, Sprague-Dawley rats; settings: rats, 3 ml/kg, compound 300 mg/kg, LMWH dose 3000 (mg/kg)
Procedure: The typical dosing and sampling protocols were as follows. Male Sprague-Dawley rats weighing between 275-350 g were fasted for 24 hours and were anesthetized with ketamine hydrochloride (about 88 mg/kg) intramuscularly immediately prior to dosing and again as needed to maintain anesthesia. A dosing group of ten rats was administered one of the dosing solutions. An 11 cm Rusch 8 French catheter was adapted to a 1 ml syringe with a pipette tip. The syringe was filled with dosing solution by drawing the solution through the catheter, which was then wiped dry. The catheter was placed down the esophagus leaving 1 cm of tubing past the incisors. Solution was administered by pressing the syringe plunger.
Oral dosing (PO) compositions containing low molecular weight heparin (LMWH) and either the mono-sodium or di-sodium salt form of the delivery agent compound SNAD were prepared in water. […]
Citrated blood samples were collected by cardiac puncture 0.5, 1.0, 2.0, 3.0 and 4.0 hours after administration. Heparin absorption was verified by an increase in plasma heparin measured by the anti-Factor Xa assay CHROMOSTRATE® Heparin anti-Xa assay, available from Organon Teknika Corporation of Durham, N.C. Baseline values were determined earlier and found to be about zero IU/ml. […]

[4] = Oral delivery of heparin with SNAD salts; plasma heparin by anti-Factor Xa assay; assay type: in vivo, cynomolgus macaque monkeys; settings: cynomolgus monkeys, about 150 mg/kg delivery agent and 30 mg/kg heparin
Procedure: The dose for each monkey was about 150 mg/kg of the disodium SNAD ethanol solvate and about 30 mg/kg of heparin. The dosing protocol for administering the capsules to each animal was as follows. […] Water was available throughout the dosing period and 400 ml juice was made available to the animal overnight prior to dosing and throughout the dosing period. The animal was restrained in a sling restraint. A capsule was placed into a “pill gun”, which is a plastic tool with a cocked plunger and split rubber tip to accommodate a capsule. The pill gun was inserted into the esophagus of the animal. The plunger of the pill gun was pressed to push the capsule out of the rubber tip into the esophagus. The pill gun was then retracted. The animal's mouth was held closed and approximately 5 ml reverse osmosis water was administered into the mouth from the side to induce a swallowing reflex. The throat of the animal was rubbed further to induce the swallowing reflex. […] Blood was added to fill the tube to the 1.3 ml line. The tube was then placed on wet ice pending centrifugation. […] Plasma heparin concentrations were determined using the anti-Factor Xa assay CHROMOSTRATE™ heparin anti-Xa assay, available from Organon Teknika Corporation of Durham, N.C. Results from the animals were averaged for each time point. […] Two tablets were dosed to each of approximately 4.0 kg monkeys. […]

CC(C)C[C@H](NC(=O)[C@H](CCCCN)NC(=O)CNC(=O)[C@H](CC(C)C)NC(=O)[C@@H](NC(=O)[C@@H]1CSSC[C@H](N)C(=O)N[C@@H](CO)C(=O)N[C@@H](CC(N)=O)C(=O)N[C@@H](CC(C)C)C(=O)N[C@@H](CO)C(=O)N[C@@H]([C@@H](C)O)C(=O)N1)C(C)C)C(=O)N[C@@H](CO)C(=O)N[C@@H](CCC(N)=O)C(=O)N[C@@H](CCC(=O)O)C(=O)N[C@@H](CC(C)C)C(=O)N[C@@H](Cc1c[nH]cn1)C(=O)N[C@@H](CCCCN)C(=O)N[C@@H](CC(C)C)C(=O)N[C@@H](CCC(N)=O)C(=O)N[C@H](C(=O)N[C@@H](Cc1ccc(O)cc1)C(=O)N1CCC[C@H]1C(=O)N[C@@H](CCCNC(=N)N)C(=O)N[C@H](C(=O)N[C@@H](CC(N)=O)C(=O)N[C@H](C(=O)NCC(=O)N[C@@H](CO)C(=O)NCC(=O)N[C@H](C(=O)N1CCC[C@H]1C(N)=O)[C@@H](C)O)[C@@H](C)O)[C@@H](C)O)[C@@H](C)O [(4d) subcutaneous, salmon calcitonin]
Mean Peak Serum sCT ± SD ([1]; Table 5, rats): 965 ± 848 pg/mL
Mean Peak Serum sCT ± SD ([1]; Table 6, rats): 273 ± 320 pg/mL

O=C([O-])CCCCCCCNC(=O)c1ccccc1[O-].[Na+].[Na+] [SNAC - di]
Mean Peak Factor Xa (IU · ml) ± SE [2]: 2.81 ± 0.17 IU · ml
Mean Peak APTT (sec) ± SE (clotting time (APTT)): 300 ± 0 s

O=C([O-])CCCCCCCCCNC(=O)c1ccccc1[O-].[Na+].[Na+] [SNAD-di]
Mean Peak Plasma Heparin Concentration (IU/ml) ± SE [3]: 1.21 ± 0.15 IU/ml

O=C([O-])CCCCCCCCCNC(=O)c1ccccc1O.[Na+] [monosodium salt of SNAD, Monosodium N-(10-[2-hydroxybenzoyl]amino)decanoate]
Mean Peak Plasma Heparin Concentration (IU/ml) ± SE [3]: 0.88 ± 0.17 IU/ml
Time after administration at which maximum averaged plasma heparin was reached [4]: 2 h
Maximum averaged plasma heparin concentration ([4]; two capsules or two tablets): 0.23±0.19 IU/mL

Mono-Sodium N-(8-[(2-hydroxybenzoyl]amino)caprylate [SNAC - mono]
Mean Peak APTT (sec) ± SE (clotting time (APTT)): 247 ± 28.5 s
